These results are taken from US6514911B1, “Substituted oxadiazines useful as pesticides” (Uniroyal Chemical Company, Inc., priority 2002, dated 2003).

For assay [1], the system named is jimsonweed (Datura stramonium L.) (JW). Kind of assay: Preemergence herbicide test, soil drench, jimsonweed. The assay is classed as in vivo. The conditions noted are these: 10 lbs/A (11.2 kg/ha) soil drench, two weeks after treatment, vs untreated checks. The method, then: (§1) To illustrate the effectiveness of the previously described substituted oxadiazines of this invention as preemergence herbicides, 300 mg of the chemical was dissolved in a composition comprising 10 mL acetone to which 30 mg of tile emulsifying agent, ethoxylated sorbitan monolaurate, was added. The solution was diluted to 100 mL with distilled water. Ten milliliters of this 3000 ppm solution was diluted to 250 ppm with distilled water. The chemical was applied at the rate of 10 pounds/acre (11.2 kg/ha) by drenchings 46 mL of the 250 ppm solution on the surface of soil in 4½ inch (11.25 cm) plastic pots wherein seeds of the following weeds had been planted: jimsonweed (Datura stramonium L.) (JW), The percent control of the weeds compared to untreated checks was determined two weeks after treatment. TABLE 1 summarizes the results achieved with compounds formulated as indicated above, and the data clearly indicate the good to excellent herbicidal efficacy of compositions of this invention.

The test system of assay [2] is tall morningglory (Ipomoea purpurea (L.) Roth) (TM). Kind of assay: Preemergence herbicide test, soil drench, tall morningglory. The conditions noted are these: 10 lbs/A (11.2 kg/ha) soil drench, two weeks after treatment, vs untreated checks; for pest or weed control at 11208.5 g/ha: Ipomoea, 336 h, read-out: Percent Weed Control TM. The assay is classed as in vivo. The method, then:
as §1, with “tall morningglory (Ipomoea purpurea (L.) Roth) (TM),” for “jimsonweed (Datura stramonium L.) (JW),”

The subject of assay [3] is switchgrass (Panicum virgahim L.) (SG). Kind of assay: Preemergence herbicide test, soil drench, switchgrass. The assay is classed as in vivo. The conditions noted are these: 10 lbs/A (11.2 kg/ha) soil drench, two weeks after treatment, vs untreated checks; for pest or weed control at 11208.5 g/ha: Panicum, 336 h, read-out: Percent Weed Control SG. The method, then: as §1, with “planted:” for “planted: jimsonweed (Datura stramonium L.) (JW), The percent control of the weeds compared to untreated checks was determined two weeks after treatment. TABLE 1 summarizes the results achieved with compounds formulated as indicated above, and the data clearly indicate the good to excellent herbicidal efficacy of compositions of this invention.”
switchgrass (Panicum virgahim L.) (SG),
(§2) The percent control of the weeds compared to untreated checks was determined two weeks after treatment. TABLE 1 summarizes the results achieved with compounds formulated as indicated above, and the data clearly indicate the good to excellent herbicidal efficacy of compositions of this invention.

Assay [4] has as its system barnyardgrass (Echinochloa crus-galli (L.) Beauv.) (BG). Kind of assay: Preemergence herbicide test, soil drench, barnyardgrass. It counts as in vivo. The conditions noted are these: 10 lbs/A (11.2 kg/ha) soil drench, two weeks after treatment, vs untreated checks; for pest or weed control at 11208.5 g/ha: Echinochloa crus-galli, 336 h, read-out: Percent Weed Control BG. How it is done:
as §1, with “barnyardgrass (Echinochloa crus-galli (L.) Beauv.) (BG), and” for “jimsonweed (Datura stramonium L.) (JW),”

For assay [5], the system named is green foxtail (Setaria virdis (L.) Beauv.) (GF). Briefly: Preemergence herbicide test, soil drench, green foxtail. It counts as in vivo. The conditions noted are these: 10 lbs/A (11.2 kg/ha) soil drench, two weeks after treatment, vs untreated checks; for pest or weed control at 11208.5 g/ha: Setaria, 336 h, read-out: Percent Weed Control GF. The method, then: as §1, with “41⁄2” for “4½”, “green foxtail (Setaria […].) Beauv.) (GF).” for “jimsonweed (Datura stramonium L.) (JW),”

Assay [6] deals with prickly sida (Sida spinosa L.) (PS). Briefly: Preemergence herbicide test, soil drench, prickly sida. It counts as in vivo. The conditions noted are these: Sida spinosa, 336 h, 10 lbs/A (11.2 kg/ha) soil drench, two weeks after treatment, vs untreated checks, read-out: Percent Weed Control PS. How it is done:
To illustrate the effectiveness of the previously described substituted oxadiazines of this invention as preemergence herbicides, 300 mg of the chemical was dissolved in a composition comprising 10 mL acetone to which 30 mg of tile emulsifying agent, ethoxylated sorbitan monolaurate, was added. The solution was diluted to 100 mL with distilled water. Ten milliliters of this 3000 ppm solution was diluted to 250 ppm with distilled water. […]
prickly sida (Sida spinosa L.) (PS),
as §2

In assay [7] the test system is velvetleaf (Abutilon theophrasti Medik.) (VL). Kind of assay: Preemergence herbicide test, soil drench, velvetleaf. The assay is classed as in vivo. The conditions noted are these: 10 lbs/A (11.2 kg/ha) soil drench, two weeks after treatment, vs untreated checks; for pest or weed control at 11208.5 g/ha: Abutilon theophrasti, 336 h, read-out: Percent Weed Control VL. The method, then: as §1, with “velvetleaf (Abutilon theophrasti Medik.) (VL),” for “jimsonweed (Datura stramonium L.) (JW),”

A further assay concerns insects. Kind of assay: Insecticidal properties (no method given). As to conditions: statement in words, no test details.

Take `FC(F)(F)C(F)(F)C(F)(F)C1=NC(C(F)(F)F)(C(F)(F)F)N=C(c2ccccc2)O1` [2-(heptafluoropropyl)-6-phenyl-4,4-bis(trifluoromethyl)-4H-1,3,5-oxadiazine, reference compound]: the “Percent Weed Control JW” value in assay [1] worked out at 0%. In addition, the pest or weed control at 11208.5 g/ha in assay [2], in assay [3], in assay [4], in assay [5], in assay [6] and in assay [7] was 0% throughout.

For the compound `FC(F)(F)C1=NC(C(F)(F)F)(C(F)(F)F)N=C(c2ccccc2C(F)(F)F)O1` [Compound 6, 2,4,4-tris(trifluoromethyl)-6-{(2-trifluoromethyl)phenyl}-4H-1,3,5-oxadiazine], the “Percent Weed Control JW” value in assay [1] is reported as 75%. Also, the “Percent Weed Control TM” value in assay [2] is 100%. For the same compound, the “Percent Weed Control SG” value in assay [3] is 75%. Moreover, the “Percent Weed Control BG” value in assay [4] was determined as 50%. Moreover, the “Percent Weed Control GF” value in assay [5] worked out at 100%. Further, the “Percent Weed Control VL” value in assay [7] amounted to 100%.

Consider `FC(F)(F)C(F)(F)C1=NC(C(F)(F)F)(C(F)(F)F)N=C(c2ccccc2Cl)O1` [Compound 12, 2-(2-chlorophenyl)-6-(pentafluoroethyl)-4,4-bis(trifluoromethyl)-4H-1,3,5-oxadiazine], for which, in assay [1], the “Percent Weed Control JW” value turned out to be 100%. Besides, the pest or weed control at 11208.5 g/ha worked out at 100% in assay [2]; 75% in assay [3]; 0% in assay [4]; 100% in assay [5]; 100% in assay [7].

Regarding `FC(F)(F)c1cccc(C2=NC(C(F)(F)F)(C(F)(F)F)N=C(C(F)(F)C(F)(F)F)O2)c1` [Compound 14, 2-(pentafluoroethyl)-4,4-bis(trifluoromethyl)-6-{(3-trifluoromethyl)phenyl}-4H-1,3,5-oxadiazine], in assay [1], the “Percent Weed Control JW” value is given as 100%. Also, in assay [2], the “Percent Weed Control TM” value worked out at 100%. Moreover, in assay [3], the “Percent Weed Control SG” value came to 100%. Besides, the “Percent Weed Control BG” value in assay [4] is on record as 100%. For the same compound, the “Percent Weed Control GF” value in assay [5] was found to be 100%. Moreover, in the assay with insects, the insecticidal properties entry is on record as “found to have insecticidal properties”. The “Percent Weed Control VL” value in assay [7] was determined as 100%.

For `FC(F)(F)C(F)(F)C1=NC(C(F)(F)F)(C(F)(F)F)N=C(c2cc(Cl)cc(Cl)c2)O1` [Compound 21, 2-(3,5-dichlorophenyl)-6-(pentafluoroethyl)-4,4-bis(trifluoromethyl)-4H-1,3,5-oxadiazine], in assay [1], the “Percent Weed Control JW” value is 100%. In addition, the pest or weed control at 11208.5 g/ha in assay [2], in assay [3], in assay [4], in assay [5] and in assay [7] was 100% throughout.

Take `Cc1cccc(C2=NC(C(F)(F)F)(C(F)(F)F)N=C(C(F)(F)C(F)(F)F)O2)c1` [Compound 22, 2-(3-methylphenyl)-6-(pentafluoroethyl)-4,4-bis(trifluoromethyl)-4H-1,3,5-oxadiazine]: the “Percent Weed Control JW” value in assay [1] is on record as 100%. For the same compound, the pest or weed control at 11208.5 g/ha in assay [2] turned out to be 0%; in assay [3] it was 0%; in assay [4], 0%; in assay [5], 50%; in assay [7] it was 100%.

With `COc1cccc(C2=NC(C(F)(F)F)(C(F)(F)F)N=C(C(F)(F)C(F)(F)F)O2)c1` [Compound 23, 2-(3-methoxyphenyl)-6-(pentafluoroethyl)-4,4-bis(trifluoromethyl)-4H-1,3,5-oxadiazine], the “Percent Weed Control JW” value in assay [1] is on record as 100%. Also, the pest or weed control at 11208.5 g/ha was determined as 100% in assay [2]; 50% in assay [3]; 0% in assay [4]; 50% in assay [5]; 100% in assay [7].
